# “And” between values parts separate entries of the source, which are not always exact repeats. Equal entries are not always repeated. Toxic doses and inconclusive results are not listed.
# Test system: BDF1 mice, P388 leukemia ip, median survival T/C
# Assay: NCI In Vivo Anticancer Drug Screen. Data for tumor model P388 Leukemia (intraperitoneal) in B6D2F1 (BDF1) mice
# Details: endpoint: median survival time, higher = longer survival
# Summary of the method: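 Reported as T/C, where T is the survival measurement in dosed animals and C the same measurement in vehicle controls.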
# [1] = dose: 12.5 mg/kg/injection, schedule: Q01DX009 (ip), vehicle: saline with Tween-80
# [2] = dose: 12.5 mg/kg/injection, schedule: Q04DX003 (ip), vehicle: saline with Tween-80
# [3] = dose: 25.0 mg/kg/injection, schedule: Q04DX003 (ip), vehicle: saline with Tween-80
# [4] = dose: 50.0 mg/kg/injection, schedule: Q01DX009 (ip), vehicle: saline with Tween-80
# [5] = dose: 50.0 mg/kg/injection, schedule: Q04DX003 (ip), vehicle: saline with Tween-80
# [6] = dose: 100.0 mg/kg/injection, schedule: Q01DX009 (ip), vehicle: saline with Tween-80
# [7] = dose: 100.0 mg/kg/injection, schedule: Q04DX003 (ip), vehicle: saline with Tween-80
# [8] = dose: 200.0 mg/kg/injection, schedule: Q01DX009 (ip), vehicle: saline with Tween-80
# [9] = dose: 200.0 mg/kg/injection, schedule: Q04DX003 (ip), vehicle: saline with Tween-80
# [10] = dose: 100.0 mg/kg/injection, schedule: Q04DX003 (ip), vehicle: Klucel (hydroxypropylcellulose) (HPC)
# [11] = dose: 200.0 mg/kg/injection, schedule: Q04DX003 (ip), vehicle: Klucel (hydroxypropylcellulose) (HPC)
# [12] = dose: 400.0 mg/kg/injection, schedule: Q04DX003 (ip), vehicle: Klucel (hydroxypropylcellulose) (HPC)
# [13] = dose: 50.0 mg/kg/injection, schedule: Q04DX003 (ip), vehicle: Klucel (hydroxypropylcellulose) (HPC)
# [14] = dose: 50.0 mg/kg/injection, schedule: Q01DX009 (ip), vehicle: Klucel (hydroxypropylcellulose) (HPC)
# [15] = dose: 100.0 mg/kg/injection, schedule: Q04DX003 (ip), vehicle: saline
# [16] = dose: 200.0 mg/kg/injection, schedule: Q01DX009 (ip), vehicle: Klucel (hydroxypropylcellulose) (HPC)
# [17] = dose: 200.0 mg/kg/injection, schedule: Q04DX003 (ip), vehicle: saline
# [18] = dose: 100.0 mg/kg/injection, schedule: Q01DX009 (ip), vehicle: Klucel (hydroxypropylcellulose) (HPC)
compound,measurement,setting,value
O=Cc1nccn1Cc1ccccc1,T/C,[1],116 % of control
same,T/C,[2],100 % of control
same,T/C,"dose: 25.0 mg/kg/injection, schedule: Q01DX009 (ip), vehicle: saline with Tween-80",100 % of control
same,T/C,[3],103 % of control
same,T/C,[4],108 % of control
same,T/C,[5],96 % of control
same,T/C,[6],105 % of control
same,T/C,[7],106 % of control
same,T/C,[8],98 % of control
same,T/C,[9],101 % of control and 106 % of control
same,T/C,"dose: 300.0 mg/kg/injection, schedule: Q04DX003 (ip), vehicle: saline with Tween-80",103 % of control
same,T/C,"dose: 400.0 mg/kg/injection, schedule: Q01DX009 (ip), vehicle: saline with Tween-80",107 % of control
CCN(CC)c1ccc(/C=C/c2ccncc2)cc1,T/C,[10],100 % of control
same,T/C,[11],100 % of control
same,T/C,[12],109 % of control
Cc1cc(C)nc(NS(=O)(=O)c2ccc(N=Nc3nc4[nH]c(N)nc(=S)c4[nH]3)cc2)n1,T/C,"dose: 1.56 mg/kg/injection, schedule: Q01DX009 (ip), vehicle: Klucel (hydroxypropylcellulose) (HPC)",113 % of control
same,T/C,"dose: 3.13 mg/kg/injection, schedule: Q01DX009 (ip), vehicle: Klucel (hydroxypropylcellulose) (HPC)",117 % of control
same,T/C,"dose: 6.25 mg/kg/injection, schedule: Q01DX009 (ip), vehicle: Klucel (hydroxypropylcellulose) (HPC)",112 % of control and 113 % of control
same,T/C,[13],116 % of control
same,T/C,[10],108 % of control
same,T/C,[11],104 % of control
Nc1ccccc1SC1CC(=O)N(c2ccc(I)cc2)C1=O (centres undefined),T/C,"dose: 12.5 mg/kg/injection, schedule: Q04DX003 (ip), vehicle: Klucel (hydroxypropylcellulose) (HPC)",95 % of control
same,T/C,"dose: 25.0 mg/kg/injection, schedule: Q01DX001 (ip), vehicle: Klucel (hydroxypropylcellulose) (HPC)",108 % of control
same,T/C,"dose: 25.0 mg/kg/injection, schedule: Q04DX003 (ip), vehicle: Klucel (hydroxypropylcellulose) (HPC)",95 % of control
same,T/C,"dose: 50.0 mg/kg/injection, schedule: Q01DX001 (ip), vehicle: Klucel (hydroxypropylcellulose) (HPC)",104 % of control
same,T/C,[13],100 % of control
same,T/C,"dose: 100.0 mg/kg/injection, schedule: Q01DX001 (ip), vehicle: Klucel (hydroxypropylcellulose) (HPC)",108 % of control
same,T/C,[10],112 % of control
CS/C(N)=N\S(=O)(=O)c1ccc(NC(C)=O)cc1,T/C,[7],95 % of control
same,T/C,[9],119 % of control
same,T/C,"dose: 400.0 mg/kg/injection, schedule: Q04DX003 (ip), vehicle: saline with Tween-80",100 % of control
CCOC(=O)C1(C(=O)OCC)COC(C)(C)OC1,T/C,[14],115 % of control
same,T/C,[15],104 % of control
same,T/C,"dose: 175.0 mg/kg/injection, schedule: Q04DX003 (ip), vehicle: saline",118 % of control
same,T/C,[16],105 % of control
same,T/C,[17],100 % of control and 113 % of control
same,T/C,"dose: 265.0 mg/kg/injection, schedule: Q04DX003 (ip), vehicle: saline",113 % of control
same,T/C,"dose: 400.0 mg/kg/injection, schedule: Q01DX009 (ip), vehicle: Klucel (hydroxypropylcellulose) (HPC)",105 % of control
same,T/C,"dose: 400.0 mg/kg/injection, schedule: Q04DX003 (ip), vehicle: saline",113 % of control and 122 % of control
same,T/C,"dose: 600.0 mg/kg/injection, schedule: Q04DX003 (ip), vehicle: saline",109 % of control
COc1ccc2c(c1)N(C)CCCC2=O,T/C,"dose: 3.12 mg/kg/injection, schedule: Q01DX009 (ip), vehicle: saline",91 % of control
same,T/C,"dose: 6.25 mg/kg/injection, schedule: Q01DX009 (ip), vehicle: saline",103 % of control
same,T/C,"dose: 12.5 mg/kg/injection, schedule: Q01DX009 (ip), vehicle: saline",91 % of control
same,T/C,"dose: 25.0 mg/kg/injection, schedule: Q01DX009 (ip), vehicle: saline",87 % of control and 91 % of control
same,T/C,"dose: 50.0 mg/kg/injection, schedule: Q01DX009 (ip), vehicle: saline",108 % of control and 113 % of control
same,T/C,"dose: 50.0 mg/kg/injection, schedule: Q04DX003 (ip), vehicle: saline",99 % of control
same,T/C,"dose: 100.0 mg/kg/injection, schedule: Q01DX009 (ip), vehicle: saline",92 % of control
same,T/C,[15],103 % of control
same,T/C,"dose: 200.0 mg/kg/injection, schedule: Q01DX009 (ip), vehicle: saline",89 % of control
same,T/C,[17],99 % of control
FC(F)c1nc2nc(Cl)c(Cl)nc2[nH]1,T/C,[1],110 % of control
same,T/C,[4],120 % of control
same,T/C,[5],100 % of control
same,T/C,"dose: 75.0 mg/kg/injection, schedule: Q01DX009 (ip), vehicle: saline with Tween-80",103 % of control
same,T/C,[7],109 % of control
O=C(NNc1ccc([N+](=O)[O-])cc1)c1ccccc1,T/C,[14],100 % of control
same,T/C,[18],90 % of control
same,T/C,[10],115 % of control
same,T/C,[16],100 % of control
same,T/C,[11],100 % of control
same,T/C,[12],95 % of control
O/N=C/c1ccccc1O.O/N=C/c1ccccc1O.[Cu],T/C,"dose: 6.25 mg/kg/injection, schedule: Q04DX003 (ip), vehicle: saline with Tween-80",118 % of control
same,T/C,[2],109 % of control
same,T/C,"dose: 16.5 mg/kg/injection, schedule: Q04DX003 (ip), vehicle: saline with Tween-80",114 % of control
same,T/C,[3],123 % of control
CN(N=O)C(=O)NCCSSCCNC(=O)N(C)N=O,T/C,"dose: 53.0 mg/kg/injection, schedule: Q04DX003 (ip), vehicle: saline with Tween-80",120 % of control
same,T/C,"dose: 80.0 mg/kg/injection, schedule: Q04DX003 (ip), vehicle: saline with Tween-80",170 % of control
same,T/C,"dose: 120.0 mg/kg/injection, schedule: Q04DX003 (ip), vehicle: saline with Tween-80",100 % of control
CCN(CC)c1ccc([N+](=O)[O-])c2no[n+]([O-])c12,T/C,"dose: 35.0 mg/kg/injection, schedule: Q01DX009 (ip), vehicle: saline with Tween-80",91 % of control
same,T/C,"dose: 70.0 mg/kg/injection, schedule: Q01DX009 (ip), vehicle: saline with Tween-80",94 % of control
C[C@H]1CN1C1=CC(=O)C(N2C[C@@H]2C)=CC1=O,T/C,"dose: 0.03 mg/kg/injection, schedule: Q01DX009 (ip), vehicle: saline",109 % of control
same,T/C,"dose: 0.12 mg/kg/injection, schedule: Q01DX009 (ip), vehicle: saline",118 % of control
same,T/C,"dose: 0.5 mg/kg/injection, schedule: Q01DX009 (ip), vehicle: Klucel (hydroxypropylcellulose) (HPC)",160 % of control
same,T/C,"dose: 0.5 mg/kg/injection, schedule: Q01DX009 (ip), vehicle: saline",191 % of control
same,T/C,"dose: 1.0 mg/kg/injection, schedule: Q01DX009 (ip), vehicle: Klucel (hydroxypropylcellulose) (HPC)",160 % of control
same,T/C,"dose: 1.0 mg/kg/injection, schedule: Q01DX009 (ip), vehicle: saline",220 % of control
same,T/C,"dose: 2.0 mg/kg/injection, schedule: Q01DX009 (ip), vehicle: Klucel (hydroxypropylcellulose) (HPC)",200 % of control
same,T/C,"dose: 4.0 mg/kg/injection, schedule: Q01DX009 (ip), vehicle: Klucel (hydroxypropylcellulose) (HPC)",190 % of control
CCOc1cc(Cl)c(N)c(Cl)c1,T/C,"dose: 100.0 mg/kg/injection, schedule: Q01DX001 (ip), vehicle: saline with Tween-80",114 % of control
same,T/C,"dose: 200.0 mg/kg/injection, schedule: Q01DX001 (ip), vehicle: saline with Tween-80",98 % of control
CCCCCCCCCCCCCCCCOc1ccccn1,T/C,"dose: 25.0 mg/kg/injection, schedule: Q01DX009 (ip), vehicle: Klucel (hydroxypropylcellulose) (HPC)",91 % of control
same,T/C,[14],95 % of control
same,T/C,[18],95 % of control
same,T/C,[10],100 % of control
same,T/C,[11],104 % of control
same,T/C,[12],122 % of control
CNC1=C2NC(=O)/C(C)=C\C=C\C(C)C(O)C(C)C(O)C(C)C(OC(C)=O)C(C)C(OC)/C=C/OC3(C)Oc4c(C)c(O)c(c(c4C3=O)C1=O)C2=O (centres undefined),T/C,[4],95 % of control
same,T/C,[6],90 % of control
same,T/C,[8],100 % of control

# Source: PubChem BioAssay AID328 (DTP/NCI, 2004)
